Laboratory results taken from patent US12012597B2, “Cancer treatment using siRNA to modulate expression of PRDM2/RIZ protein” (ARIZ Precision Medicine, Inc., priority 2020, dated 2024).
Entries after “also recorded” stand apart in the source; their conditions may differ. d = 2'-deoxy (DNA); r = 2'-OH (RNA)

Legend:
[1] = system: HCT116 colon cancer cells; assay: Cell viability after siRNA transfection with or without 5-fluorouracil; details: 5-fluorouracil 25 μM added one day after transfection, after four days, relative to untreated cells, FIG. 4
Description: Where indicated, 5-fluorouracil (25 μM) was added one day after transfection. Media (with 5-flurouracil where indicated) was changed after two days, and after four days, percent cell viability was determined, relative to untreated cells.

RIZ2 mRNA [2] = assay: RIZ2 mRNA level in HCT116 cells after siRNA; format: cell-based, human; details: FIG. 5
Description: (§1) RIZ1 and RIZ2 mRNA levels were determined in control and siRNA-transfected cells using qPCR. RNA was extracted from cells 48 hours after transfection, and mRNA expression levels were detected using PRDM isoform A and PRDM isoform C specific PCR primers. RIZ mRNA expression levels were determined relative to GAPDH mRNA expression levels. Scrambled siRNA was used a negative control, and Tox (Transfection control siRNA, commercially available) was used a positive control.

[3] = system: KMS-11 multiple myeloma cell line; assay: Viability of multiple myeloma cells after siRNA; format: cell-based; details: comparable to the Tox positive control, FIG. 8
Text: In this example, the effect of siRNA ARIZ-011 was further tested on a multiple myeloma cell line, KMS-11. KMS-11 cell line was obtained from commercially available sources, and was originally derived from […] multiple myeloma patient's cells. These cells have characteristics of plasma cells.

A549 lung cancer cells = assay: MTS cell viability assay after siRNA transfection; format: cell-based, human; details: 100 nM siRNA; for Viability of the A549 lung cancer cells (change): DharmaFECT 1, after four days, FIG. 2; for relative cell viability: single exposure, after four days, relative to untreated cells
RIZ1 mRNA [4] = assay: RIZ1 mRNA level in HCT116 cells after siRNA; format: cell-based, human; details: FIG. 5
Description: as §1

RIZ2 mRNA [5] = assay: qPCR of RIZ2 mRNA in siRNA-transfected A549 cells; format: cell-based, human
Description: as §1

RIZ1 mRNA [6] = assay: qPCR of RIZ1 mRNA in siRNA-transfected A549 cells; format: cell-based, human; details: qPCR relative to GAPDH mRNA
Description: as §1

## O=c1[nH]cc(F)c(=O)[nH]1 [5-fluorouracil]
[1]; Homo sapiens, HCT-116, read-out: decreased cell viability (killing) of HCT116 colon cancer cells, siRNA 100 nM
  cytotoxicity at 25 µM: 72 to 74%
[1]; siRNA 100 nM
  decreased cell viability (killing) of HCT116 colon cancer cells: 72%

## ARIZ-011: Unmodified double-stranded siRNA, sense SEQ ID NO: 1, antisense SEQ ID NO: 10, complementary to both RIZ1 and RIZ2 mRNA (sense GGGAGAGAUGAGAGAGAAATT; antisense UUUCUCUCUCAUCUCUCCCTT; RNA, all phosphodiester, T or U not given here)
RIZ2 mRNA [2]
  expression level of RIZ2 (change): selectively decreased
[3]
  KMS-11 cell death in culture: about 80%
A549 lung cancer cells
  Viability of the A549 lung cancer cells (change): decreased
  relative cell viability: 30%
RIZ1 mRNA [4]
  RIZ1 mRNA (change): concurrent increase
RIZ2 mRNA [5]; 48 hours after transfection, relative to GAPDH mRNA, FIG. 3
  decrease in RIZ2 mRNA: ~75%
RIZ2 mRNA [5]; qPCR relative to GAPDH mRNA
  RIZ2 mRNA level (change): knockdown
RIZ1 mRNA [6]
  RIZ1 mRNA level (change): simultaneous increase in RIZ1 mRNA; also recorded: upregulated expression

## ARIZ-012: Double-stranded siRNA, sense SEQ ID NO: 2, antisense SEQ ID NO: 12, complementary to sequences shared by RIZ1 and RIZ2 mRNA (sense GUGUAGUGCUGUAAAGAAATT; antisense UUUCUUUACAGCACUACACTT; sugars from the 5' end r19 d2, backbone and T or U not given here)
A549 lung cancer cells
  Viability of the A549 lung cancer cells (change): decreased

## ARIZ-015: Double-stranded siRNA, sense SEQ ID NO: 5, antisense SEQ ID NO: 15, complementary to last 19 bases at 3′ end of RIZ2 mRNA (sense GGACUUCAGGAACUUCCUGTT; antisense CAGGAAGUUCCUGAAGUCCTT; sugars from the 5' end r19 d2, backbone and T or U not given here)
A549 lung cancer cells
  Viability of the A549 lung cancer cells (change): decreased
  relative cell viability: 70%
